Type in all cases: in vivo
Assay [1] has as its system Septoria tritici. Kind of assay: Test A1 (comparative): wheat leaf blotch, wheat seedlings. The conditions noted are these: 100 = 100% disease control, 0 = no control. An excerpt: (§1) General protocol for preparing test suspensions for Tests A1-F1: the test compounds were first dissolved in acetone in an amount equal to 3% of the final volume and then suspended at the desired concentration (in ppm) in acetone and purified water (50/50 mix by volume) containing 250 ppm of the surfactant PEG400 (polyhydric alcohol esters). The resulting test suspensions were then used in Tests A1-F1.
The test solution was sprayed to the point of run-off on wheat seedlings. The following day the seedlings were inoculated with a spore suspension of Septoria tritici (the causal agent of wheat leaf blotch) and incubated in a saturated atmosphere at 24° C. for 48 h, and then moved to a growth chamber at 20° C. for 17 days, after which time disease ratings were made.
(§2) A rating of 100 indicates 100% disease control and a rating of 0 indicates no disease control (relative to the controls).

Assay [2] deals with Blumeria graminis f. sp. tritici. The assay can be described thus: Test C1 (comparative): wheat powdery mildew, wheat seedlings. The conditions noted are these: 100 = 100% disease control.
Description: as §1
The test suspension was sprayed to the point of run-off on wheat seedlings. The following day the seedlings were inoculated with a spore dust of Blumeria graminis f. sp. tritici, (also known as Erysiphe graminis f. sp. tritici, the causal agent of wheat powdery mildew) and incubated in a growth chamber at 20° C. for 8 days, after which time visual disease ratings were made.
as §2

Assay [3] deals with Alternaria solani. The assay can be described thus: Test F1 (comparative): tomato early blight, tomato seedlings. The conditions noted are these: 100 = 100% disease control.
Description: as §1
The test suspension was sprayed to the point of run-off on tomato seedlings. The following day the seedlings were inoculated with a spore suspension of Alternaria solani (the causal agent of tomato early blight) and incubated in a saturated atmosphere at 27° C. for 48 h, and then moved to a growth chamber at 20° C. for 3 days, after which time visual disease ratings were made.
as §2

Assay [4] has as its system Botrytis cinerea. Kind of assay: Test E1 (comparative): tomato Botrytis, tomato seedlings. To be noted: 100 = 100% disease control.
Description: as §1
The test suspension was sprayed to the point of run-off on tomato seedlings. The following day the seedlings were inoculated with a spore suspension of Botrytis cinerea (the causal agent of tomato Botrytis) and incubated in a saturated atmosphere at 20° C. for 48 h, and then moved to a growth chamber at 24° C. for 3 days, after which time visual disease ratings were made.
as §2

Assay [5] concerns Puccinia recondita f. sp. tritici. The assay can be described thus: Test B1 (comparative): wheat leaf rust, wheat seedlings. The conditions noted are these: 100 = 100% disease control.
Description: as §1
The test solution was sprayed to the point of run-off on wheat seedlings. The following day the seedlings were inoculated with a spore suspension of Puccinia recondita f. sp. tritici (the causal agent of wheat leaf rust) and incubated in a saturated atmosphere at 20° C. for 24 h, and then moved to a growth chamber at 20° C. for 7 days, after which time disease ratings were made.
as §2

Assay [6] concerns Botrytis cinerea. The assay can be described thus: Test E: tomato Botrytis, preventive spray on tomato seedlings. To be noted: 100 = 100% disease control, 0 = no control. The essentials: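 Preventive test: seedlings sprayed to run-off with compound in acetone/water (50/50) plus 250 ppm PEG400, inoculated one day later with B. cinerea spores. Held 48 h saturated at 20° C, then 3 days at 24° C; disease control scored visually from 0 to 100 versus controls.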

Assay [7] has as its system Alternaria solani. Kind of assay: Test F: tomato early blight, preventive spray on tomato seedlings. The conditions noted are these: 100 = 100% disease control, 0 = no control. Put shortly:
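Preventive test: one day after the compound spray, seedlings were inoculated with A. solani, incubated saturated at 27 °C for 48 h, then kept at 20 °C for 3 days. Test suspensions contained acetone/water 50/50 with 250 ppm PEG400 surfactant. Visual ratings run from 0 (no control) to 100 (full control).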

In assay [8] the test system is Septoria tritici. The assay can be described thus: Test A: wheat leaf blotch, preventive spray on wheat seedlings. To be noted: 100 = 100% disease control, 0 = no control. The essentials: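 Preventive test: one day after spraying seedlings to run-off (concentrations in ppm; acetone/water, 250 ppm PEG400), Septoria tritici spores applied. Scored after 48 h humid incubation at 24 °C plus 17 days at 20 °C, as percent disease control versus untreated controls (100 = full control).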

In another assay the test system is Phakopsora pachyrhizi. The assay can be described thus: Test D: Asian soybean rust, preventive spray on soybean seedlings. The conditions noted are these: 100 = 100% disease control, 0 = no control. The essentials:
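Compounds in acetone/water (50/50) with 250 ppm PEG400, dosed in ppm, sprayed to run-off on soybean seedlings; inoculated with P. pachyrhizi spores next day. Held 24 h at 22 °C in saturated air, then 8 days at 22 °C; visual rating of disease control, 0–100, relative to untreated controls.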

The subject of assay [9] is Puccinia recondita f. sp. tritici. The assay can be described thus: Test B: wheat leaf rust, preventive spray on wheat seedlings. The conditions noted are these: 100 = 100% disease control, 0 = no control. The essentials:
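Preventive test: compound in acetone/water 50/50 with 250 ppm PEG400 was sprayed onto wheat seedlings one day before inoculation with leaf rust spores. After 24 h in saturated air and 7 days in a growth chamber, both at 20 °C, disease control was scored from 0 to 100 against controls.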

Assay [10] has as its system Blumeria graminis f. sp. tritici. The assay can be described thus: Test C: wheat powdery mildew, preventive spray on wheat seedlings. The conditions noted are these: 50 ppm, 100 = 100% disease control, 0 = no control. Put shortly: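 Preventive test: inoculation with spore dust came one day after spraying seedlings to run-off with ppm suspensions in acetone/water (50/50) plus 250 ppm PEG400 surfactant. Visual ratings after 8 days' incubation at 20° C give percent disease control relative to controls.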

On to `Cc1nn(C)c(Nc2ccc([N+](=O)[O-])cc2F)c1-c1ccc(F)cc1Cl` [Cmpd. from WO 2010/101973, reference compound], for which the “Test A1 disease control rating” value in the assay on Septoria tritici [1] (Rate 10 ppm) is reported as 45%; with Septoria tritici [1] (Rate 50 ppm) it was 91%. The “Test C1 disease control rating” value in [2] (Rate 10 ppm) and in assay [2] (Rate 50 ppm) was 0% in each case. The “Test F1 disease control rating” value in the assay with Alternaria solani [3] (Rate 10 ppm) and with Alternaria solani [3] (Rate 50 ppm) was 0% in each case. In addition, the “Test E1 disease control rating” value worked out at 0% with Botrytis cinerea [4] (Rate 10 ppm) and 40% with Botrytis cinerea [4] (Rate 50 ppm). Also, the “Test B1 disease control rating” value in assay [5] (Rate 10 ppm) and in assay [5] (Rate 50 ppm) was 0% each time.
Turning to `Cc1nn(C)c(Nc2c(F)cccc2[N+](=O)[O-])c1-c1ccc(F)cc1Cl` [Compound 112, 4-(2-chloro-4-fluorophenyl)-N-(2-fluoro-6-nitrophenyl)-1,3-dimethyl-1H-pyrazol-5-amine], the entries for the “Test A1 disease control rating” value in the assay on Septoria tritici [1] (Rate 10 ppm) and with Septoria tritici [1] (Rate 50 ppm) were 81% and 100%, respectively. Further, the pest or weed control at 10 ppm in the assay on Botrytis cinerea [6] (120 h, 10 ppm, read-out: Test E disease control rating) stood at 100%; in the assay on Alternaria solani [7] (120 h, 10 ppm, read-out: Test F disease control rating), 98%; in the assay on Septoria tritici [8] (Zymoseptoria tritici, 456 h, 10 ppm, read-out: Test A disease control rating), 72%; in the assay with Phakopsora pachyrhizi (216 h, 10 ppm, read-out: Test D disease control rating), 52%; in assay [9] (192 h, 10 ppm, read-out: Test B disease control rating), 100%. Also, the pest or weed control at 50 ppm was found to be 100% with Botrytis cinerea [6] (120 h, 50 ppm, read-out: Test E disease control rating); 100% in the assay with Alternaria solani [7] (120 h, 50 ppm, read-out: Test F disease control rating); 88% with Septoria tritici [8] (Zymoseptoria tritici, 456 h, 50 ppm, read-out: Test A disease control rating); 99% in the assay with Phakopsora pachyrhizi (216 h, 50 ppm, read-out: Test D disease control rating); 100% in assay [9] (192 h, 50 ppm, read-out: Test B disease control rating). For the same compound, the entries for the “Test C1 disease control rating” value in assay [2] (Rate 10 ppm) and in assay [2] (Rate 50 ppm) were 97% and 98%, respectively. In the assay with Alternaria solani [3] (Rate 10 ppm), the “Test F1 disease control rating” value is given as 99%. Further, the “Test E1 disease control rating” value in the assay on Botrytis cinerea [4] (Rate 10 ppm) and with Botrytis cinerea [4] (Rate 50 ppm) was 99% each time. Moreover, the “Test B1 disease control rating” value in [5] (Rate 10 ppm) is 86%; in assay [5] (Rate 50 ppm) it was 100%.
As for `Cc1nn(C)c(Nc2c(F)cc(F)cc2[N+](=O)[O-])c1-c1c(F)cc(F)cc1Cl` [compound 199], the “Test E disease control rating” value in the assay with Botrytis cinerea [6] (50 ppm) is given as 99%. Further, the “Test C disease control rating” value in [10] came out at 100%. The “Test F disease control rating” value with Alternaria solani [7] (50 ppm) is listed as 100%. The “Test A disease control rating” value in the assay with Septoria tritici [8] (50 ppm) is given as 99%. The “Test D disease control rating” value in the assay with Phakopsora pachyrhizi (50 ppm) turned out to be 100%. In addition, the “Test B disease control rating” value in [9] (50 ppm) is recorded as 100%.
For `Cc1cc(F)c(Nc2c(-c3c(F)cc(C#N)cc3F)c(C)nn2C)c([N+](=O)[O-])c1` [compound 200], in the assay with Botrytis cinerea [6] (50 ppm), the “Test E disease control rating” value is on record as 98%. In addition, the “Test C disease control rating” value in [10] was 99%. In the assay on Alternaria solani [7] (50 ppm), the “Test F disease control rating” value worked out at 100%. Also, the “Test A disease control rating” value in the assay with Septoria tritici [8] (50 ppm) is on record as 99%. Further, in the assay on Phakopsora pachyrhizi (50 ppm), the “Test D disease control rating” value was found to be 100%. In [9] (50 ppm), the “Test B disease control rating” value is reported as 100%.
`Cc1cc(F)c(Nc2c(-c3c(F)cccc3Cl)c(C)nn2C)c([N+](=O)[O-])c1` [compound 201]: the “Test E disease control rating” value in the assay with Botrytis cinerea [6] (50 ppm) is on record as 99%. The “Test C disease control rating” value in assay [10] is reported as 99%. For the same compound, in the assay with Alternaria solani [7] (50 ppm), the “Test F disease control rating” value stood at 99%. Also, the “Test A disease control rating” value with Septoria tritici [8] (50 ppm) turned out to be 100%. Further, the “Test D disease control rating” value in the assay on Phakopsora pachyrhizi (50 ppm) was 98%. In addition, the “Test B disease control rating” value in assay [9] (50 ppm) came to 100%.

The values above are taken from US20230148599A1, “FUNGICIDAL MIXTURES CONTAINING PYRAZOLE DERIVATIVES” (FMC Corporation, priority 2020, published 2023).
